Data taken from publication PMC5469366 (Journal of medicinal chemistry, 2017).
Several values for one entry are separate records, joined by “and”; a condition that tells them apart may be missing. Identical values can stand only once.

How the values were obtained:
[1] = in vivo; cited from earlier work
[2] = system: A. baumannii (ATCC 19606); assay: Micro dilution broth checkerboard; format: cell-based, Acinetobacter baumannii; settings: wells at growth–no growth interface
[3] = system: MDR-A. baumannii ATCC BAA-1800; assay: MIC/MBC broth dilution, MDR A. baumannii; format: cell-based, Acinetobacter baumannii; settings: for MBC / MIC: MDR-A. baumannii ATCC BAA-1800, broth dilution
[4] = system: A. baumannii ATCC 19606; assay: MIC/MBC broth dilution, drug sensitive A. baumannii; format: cell-based, Acinetobacter baumannii; settings: for MBC: kills 99.9% of bacteria
[5] = system: Vero cells; assay: Cytotoxicity; format: cell-based, monkey; settings: MTT assay
[6] = Caco-2 permeability; format: in vitro ADME; settings: human
[7] = system: A. baumannii (ATCC19606); assay: Mouse septicemia model, survival; format: in vivo, C57BL/6 mice
[8] = system: A. baumannii (ATCC19606); assay: Spontaneous mutation frequency on agar; format: cell-based, Acinetobacter baumannii; settings: 4xMIC concentration
[9] = combination of valnemulin and doxycycline

| Compound | MIC CA and CB (concentrations of A and B in combination) [2, 9] | MBC [3] [µg/mL] | MIC [3] [µg/mL] | MIC [4] [µg/mL] | MBC [4] [µg/mL] | further results |
| --- | --- | --- | --- | --- | --- | --- |
| C=C[C@]1(C)C[C@@H](OC(=O)CSC(C)(C)CNC(=O)[C@H](N)C(C)C)[C@]2(C)[C@H](C)CC[C@]3(CCC(=O)[C@H]32)[C@@H](C)[C@@H]1O [Valnemulin, valnemulin] | 0.78 µg/mL and 1.56 µg/mL |  |  |  |  | half-lives in plasma [1]: 1.3 to 2.9 h |
| (3R,3aR,4R,5R,7S,8S,9R,9aS,12R)-3,8-dihydroxy-4,7,9,12-tetramethyl-7-vinyldecahydro-4,9a-propanocyclopenta[8]annulen-5-yl 2-((1-((R)-2-((S)-2,5-diaminopentanamido)-3-methylbutanamido)-2-methylpropan-2-yl)thio)acetate [compound 2] |  | >12.5 | 3.13 | 3.13 | >12.5 |  |
| colistin |  | 25.0 | >12.5 | 3.13 | 6.25 | Cytotoxicity IC50 [5]: > 200 µg/mL |
| C=C[C@]1(C)C[C@@H](OC(=O)CSC(C)(C)CNC(=O)[C@H](N)C(C)C)[C@]2(C)[C@H](C)CC[C@]3(CC[C@@H](O)[C@H]32)[C@@H](C)[C@@H]1O [compound 1, (3R,3aR,4R,5R,7S,8S,9R,9aS,12R)-3,8-dihydroxy-4,7,9,12-tetramethyl-7-vinyldecahydro-4,9a-propanocyclopenta[8]annulen-5-yl 2-((1-((R)-2-amino-3-methylbutanamido)-2-methylpropan-2-yl)thio)acetate] |  |  |  |  |  | Papp [6]: > 1 ×10⁻⁶ cm/s; concentrations at which the MDR strain was killed ([3]; A. baumannii ATCC BAA-1800): 6.25 to 12.5 µg/mL; effectiveness in mouse septicemia model ([7]; IP single dose, 2 to 60 mg/kg): showed effectiveness in the same in vivo studies, but required higher dosage than that with 1-Dox35/1; spontaneous resistance mutation frequency [8]: 1×10^−8 |
| NC[C@H]1O[C@H](O[C@H]2[C@H](O)[C@@H](O[C@H]3O[C@H](CO)[C@@H](O)[C@H](N)[C@H]3O)[C@H](N)C[C@@H]2N)[C@H](N)C[C@@H]1O [Tobramycin, tobramycin] |  |  |  |  |  | survival of mice ([7]; 6.0 mg/kg dose IP): survived the mice |
| C[C@H]1c2cccc(O)c2C(=O)C2=C(O)[C@]3(O)C(=O)C(C(N)=O)=C(O)[C@@H](N(C)C)[C@@H]3[C@@H](O)[C@@H]21.O [Doxycycline, doxycycline] | 0.025 µg/mL and 0.05 µg/mL |  |  |  |  | MIC CA and CB (concentrations of A and B in combination) ([2]; combination of 1 and doxycycline): 0.025 µg/mL and 0.05 µg/mL |
